Test results from article PMC8213421 (CPT: Pharmacometrics & Systems Pharmacology, 2021).

Tests used:
[1] = test system: CYP2B6 mRNA; experiment: CYP induction in cultured human hepatocytes
[2] = test system: OAT3; settings: read-out: OAT3 Ki; lowest reported value; cited from earlier work
[3] = test system: CYP3A4 mRNA; experiment: in vitro; settings: human
[4] = molecular target: T1, OAT1 (Homo sapiens, UniProt Q4U2R8); experiment: Transporter inhibition in transfected HEK293 cells; format: cell-based
T1 sequence (Q4U2R8 1-563): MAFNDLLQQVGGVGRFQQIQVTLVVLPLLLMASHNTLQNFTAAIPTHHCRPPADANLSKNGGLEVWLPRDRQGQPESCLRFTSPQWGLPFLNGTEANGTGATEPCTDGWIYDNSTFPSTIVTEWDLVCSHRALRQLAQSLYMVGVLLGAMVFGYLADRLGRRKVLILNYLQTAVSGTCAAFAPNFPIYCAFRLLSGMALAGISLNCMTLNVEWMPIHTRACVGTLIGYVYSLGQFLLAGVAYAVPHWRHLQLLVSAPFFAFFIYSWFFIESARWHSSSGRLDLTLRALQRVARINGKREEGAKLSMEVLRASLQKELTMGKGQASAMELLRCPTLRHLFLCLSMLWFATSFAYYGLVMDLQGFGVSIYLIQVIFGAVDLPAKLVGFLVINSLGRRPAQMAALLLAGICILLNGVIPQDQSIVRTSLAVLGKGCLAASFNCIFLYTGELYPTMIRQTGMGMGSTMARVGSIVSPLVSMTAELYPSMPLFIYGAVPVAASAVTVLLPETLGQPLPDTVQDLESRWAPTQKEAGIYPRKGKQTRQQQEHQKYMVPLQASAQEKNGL

[5] = molecular target: human P‐gp (Homo sapiens, UniProt P08183); experiment: P-gp inhibition assay, bidirectional digoxin permeability in Caco-2 cells; format: cell-based
Sequence of human P‐gp (P08183 whole entry): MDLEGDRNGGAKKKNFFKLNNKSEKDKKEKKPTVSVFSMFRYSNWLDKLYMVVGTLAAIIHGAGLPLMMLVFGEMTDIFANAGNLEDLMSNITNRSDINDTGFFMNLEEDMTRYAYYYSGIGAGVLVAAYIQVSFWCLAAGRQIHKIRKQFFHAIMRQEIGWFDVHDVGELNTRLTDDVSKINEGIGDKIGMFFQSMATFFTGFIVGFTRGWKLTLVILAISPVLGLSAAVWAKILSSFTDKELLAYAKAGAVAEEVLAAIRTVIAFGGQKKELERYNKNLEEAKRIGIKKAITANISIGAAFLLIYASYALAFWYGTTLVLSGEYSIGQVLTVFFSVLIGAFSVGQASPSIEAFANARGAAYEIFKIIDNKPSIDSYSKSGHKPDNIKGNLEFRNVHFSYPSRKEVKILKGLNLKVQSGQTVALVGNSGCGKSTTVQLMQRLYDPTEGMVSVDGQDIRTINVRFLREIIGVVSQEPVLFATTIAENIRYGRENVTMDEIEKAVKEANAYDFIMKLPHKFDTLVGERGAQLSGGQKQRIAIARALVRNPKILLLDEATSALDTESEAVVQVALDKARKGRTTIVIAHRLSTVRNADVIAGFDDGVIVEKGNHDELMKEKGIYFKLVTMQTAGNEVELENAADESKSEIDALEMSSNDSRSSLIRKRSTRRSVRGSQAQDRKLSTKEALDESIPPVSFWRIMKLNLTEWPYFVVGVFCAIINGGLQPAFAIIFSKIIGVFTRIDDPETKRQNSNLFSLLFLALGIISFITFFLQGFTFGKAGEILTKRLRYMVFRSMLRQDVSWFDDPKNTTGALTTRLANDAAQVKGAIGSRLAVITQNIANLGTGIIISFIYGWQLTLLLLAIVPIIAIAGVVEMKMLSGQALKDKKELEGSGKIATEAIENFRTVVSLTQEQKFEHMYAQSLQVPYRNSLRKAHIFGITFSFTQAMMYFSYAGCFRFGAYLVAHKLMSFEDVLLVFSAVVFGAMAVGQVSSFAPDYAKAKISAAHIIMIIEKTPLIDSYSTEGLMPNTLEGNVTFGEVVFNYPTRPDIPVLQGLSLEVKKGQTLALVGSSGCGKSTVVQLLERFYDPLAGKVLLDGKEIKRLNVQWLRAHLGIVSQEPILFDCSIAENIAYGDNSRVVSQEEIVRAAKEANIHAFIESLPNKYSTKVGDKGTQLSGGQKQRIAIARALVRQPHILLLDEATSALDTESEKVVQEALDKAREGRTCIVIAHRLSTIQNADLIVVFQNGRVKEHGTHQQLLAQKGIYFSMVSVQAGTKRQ

[6] = test system: CYP2C19 mRNA; experiment: CYP induction in cultured human hepatocytes; settings: all three hepatocyte cultures
[7] = test system: CYP3A4; settings: patients, cited from earlier work
[8] = test system: CYP2C9 mRNA; experiment: CYP induction in cultured human hepatocytes
[9] = molecular target: T2, OATP1B3 (Homo sapiens, UniProt Q9NPD5); experiment: Transporter inhibition in transfected HEK293 cells; format: cell-based
T2 sequence (Q9NPD5 1-702): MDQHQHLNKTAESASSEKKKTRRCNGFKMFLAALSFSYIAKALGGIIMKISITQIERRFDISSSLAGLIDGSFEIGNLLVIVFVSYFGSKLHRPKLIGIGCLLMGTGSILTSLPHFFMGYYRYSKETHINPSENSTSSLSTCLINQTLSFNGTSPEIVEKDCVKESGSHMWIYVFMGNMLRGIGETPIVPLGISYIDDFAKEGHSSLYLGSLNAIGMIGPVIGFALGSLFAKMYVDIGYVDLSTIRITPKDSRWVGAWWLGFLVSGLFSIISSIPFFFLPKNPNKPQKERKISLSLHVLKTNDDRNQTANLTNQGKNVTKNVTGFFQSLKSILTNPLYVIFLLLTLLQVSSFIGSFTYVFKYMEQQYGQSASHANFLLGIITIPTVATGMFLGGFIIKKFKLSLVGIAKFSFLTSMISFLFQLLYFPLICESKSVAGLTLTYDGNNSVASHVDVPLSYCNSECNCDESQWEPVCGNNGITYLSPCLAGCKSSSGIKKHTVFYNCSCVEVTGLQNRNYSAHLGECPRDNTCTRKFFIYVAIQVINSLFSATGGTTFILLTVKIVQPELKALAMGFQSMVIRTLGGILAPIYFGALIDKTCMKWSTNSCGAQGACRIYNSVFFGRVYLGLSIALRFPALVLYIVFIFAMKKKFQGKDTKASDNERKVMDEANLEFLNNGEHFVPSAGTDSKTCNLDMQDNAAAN

[10] = molecular target: T3, OCT2 (Homo sapiens, UniProt O15244); experiment: Transporter inhibition in transfected HEK293 cells; format: cell-based
T3 sequence (O15244 1-555): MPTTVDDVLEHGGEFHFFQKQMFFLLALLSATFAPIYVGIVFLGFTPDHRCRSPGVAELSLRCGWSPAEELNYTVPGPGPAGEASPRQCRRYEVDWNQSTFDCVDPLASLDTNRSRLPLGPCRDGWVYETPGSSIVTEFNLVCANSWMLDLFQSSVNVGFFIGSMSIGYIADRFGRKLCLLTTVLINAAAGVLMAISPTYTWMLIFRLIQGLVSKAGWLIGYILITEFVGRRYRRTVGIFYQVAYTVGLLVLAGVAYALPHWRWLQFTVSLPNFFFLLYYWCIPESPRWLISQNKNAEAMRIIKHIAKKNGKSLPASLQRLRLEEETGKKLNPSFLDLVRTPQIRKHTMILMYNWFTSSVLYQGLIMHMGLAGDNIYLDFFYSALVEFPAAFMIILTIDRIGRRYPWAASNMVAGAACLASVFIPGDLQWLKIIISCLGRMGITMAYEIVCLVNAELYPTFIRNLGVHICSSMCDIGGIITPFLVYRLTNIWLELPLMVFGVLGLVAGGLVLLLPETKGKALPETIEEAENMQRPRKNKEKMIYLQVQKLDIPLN

[11] = test system: CYP3A4; settings: ivosidenib PBPK model; cited from earlier work
[12] = test system: CYP2C8 mRNA; experiment: CYP induction in cultured human hepatocytes
[13] = test system: CYP1A2 mRNA; experiment: CYP induction in cultured human hepatocytes
[14] = molecular target: T4, OATP1B1 (Homo sapiens, UniProt Q9Y6L6); experiment: Transporter inhibition in transfected HEK293 cells; format: cell-based
T4 sequence (Q9Y6L6 1-691): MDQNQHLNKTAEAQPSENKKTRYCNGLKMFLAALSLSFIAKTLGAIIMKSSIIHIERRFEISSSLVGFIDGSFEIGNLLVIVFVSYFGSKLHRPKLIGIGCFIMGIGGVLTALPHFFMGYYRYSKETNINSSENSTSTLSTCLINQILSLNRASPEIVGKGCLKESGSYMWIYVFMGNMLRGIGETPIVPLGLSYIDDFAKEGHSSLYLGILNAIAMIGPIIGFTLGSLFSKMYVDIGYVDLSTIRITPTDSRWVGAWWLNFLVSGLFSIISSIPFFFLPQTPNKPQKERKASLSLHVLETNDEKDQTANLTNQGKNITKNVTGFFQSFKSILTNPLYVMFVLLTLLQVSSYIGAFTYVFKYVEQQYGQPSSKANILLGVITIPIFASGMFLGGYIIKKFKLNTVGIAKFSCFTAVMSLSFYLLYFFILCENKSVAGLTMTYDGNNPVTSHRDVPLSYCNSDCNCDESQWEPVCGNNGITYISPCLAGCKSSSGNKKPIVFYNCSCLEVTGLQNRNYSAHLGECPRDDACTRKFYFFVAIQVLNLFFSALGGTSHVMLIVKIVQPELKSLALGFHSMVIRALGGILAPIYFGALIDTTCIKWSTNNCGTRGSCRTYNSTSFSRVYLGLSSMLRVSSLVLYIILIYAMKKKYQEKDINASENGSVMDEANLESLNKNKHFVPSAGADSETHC

[15] = molecular target: T5, OAT3 (Homo sapiens, UniProt Q8TCC7); experiment: Transporter inhibition in transfected HEK293 cells; format: cell-based
T5 sequence (Q8TCC7 1-542): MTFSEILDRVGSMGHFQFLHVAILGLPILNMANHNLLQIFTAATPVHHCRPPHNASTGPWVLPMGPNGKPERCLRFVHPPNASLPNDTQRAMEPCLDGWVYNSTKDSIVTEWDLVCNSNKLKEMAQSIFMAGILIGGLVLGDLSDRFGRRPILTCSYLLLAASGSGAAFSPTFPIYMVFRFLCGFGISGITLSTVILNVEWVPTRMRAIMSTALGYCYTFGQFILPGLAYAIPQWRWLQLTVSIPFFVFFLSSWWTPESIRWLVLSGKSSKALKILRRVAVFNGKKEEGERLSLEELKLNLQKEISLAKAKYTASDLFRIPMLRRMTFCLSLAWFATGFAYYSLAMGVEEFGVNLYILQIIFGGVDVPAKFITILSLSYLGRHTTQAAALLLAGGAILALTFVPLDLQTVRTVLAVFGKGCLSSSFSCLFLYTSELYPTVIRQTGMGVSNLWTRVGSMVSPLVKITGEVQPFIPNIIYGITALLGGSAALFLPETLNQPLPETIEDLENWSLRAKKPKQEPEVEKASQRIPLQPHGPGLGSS

[16] = test system: CYP3A4 mRNA; settings: human, hepatocytes
[17] = test system: CYP3A4; experiment: PBPK; set-up: species or system human; settings: based on simulated midazolam results
[18] = test system: CYP3A4; settings: human, in vivo, 600 mg, cited from earlier work
[19] = test system: OATP1B1/1B3; settings: hepatic uptake, model; cited from earlier work
[20] = test system: NTCP; settings: hepatic uptake, model; cited from earlier work
[21] = cited from earlier work
[22] = test system: CYP3A4; settings: multiple doses of rifampicin 600 mg q.d.; cited from earlier work
[23] = Venetoclax observed clinical PK; format: in vivo; settings: human, plasma, oral
[24] = molecular target: T5, OAT3; settings: cited from earlier work
[25] = human, cultured human hepatocytes

CCC1(c2ccccc2)C(=O)NC(=O)NC1=O [phenobarbital, reference compound]
increase in CYP2B6 mRNA levels ([1]; prototypical inducer (positive control), human hepatocytes): 13 ± 4.7 fold

N#Cc1ccnc(N2C(=O)CC[C@H]2C(=O)N(c2cncc(F)c2)[C@H](C(=O)NC2CC(F)(F)C2)c2ccccc2Cl)c1 [Ivosidenib]
EC50 [3]: 12.5 ± 9.2 µM
IC50 [4]: > 65 µM
IC50 [5]: 19.6 µM
effect on CYP2C19 mRNA levels [6]: inconclusive
increase of mean 4β‐OHC levels ([7]; 500 mg ivosidenib): ~ 199%
increase of 4β‐OHC ([7]; after 28 days of 100 mg b.i.d. and 100–1200 mg q.d. ivosidenib): up to 371%
CYP2C9 mRNA mean Emax ([8]; human hepatocytes, 3 donors): 3.39 ± 0.63
EC50 at 72 h [8, 25]: 3.23 ± 1.04 µM
IC50 [9]: 22.8 µM
CYP2B6 mRNA mean Emax ([1]; human hepatocytes, 3 donors): 2.85 ± 1.53
EC50 at 72 h [1, 25]: 2.93 ± 0.65 µM
IC50 [10]: > 65 µM
fm (fraction metabolized, CYP3A4) [11]: 0.865
CYP2C8 mRNA mean Emax ([12]; human hepatocytes, 3 donors): 3.79 ± 1.28
EC50 at 72 h [12, 25]: 8.1 ± 3.3 µM
CYP1A2 mRNA induction ([13]; 3 donors, 0.05-90 μM once daily 3 days): no significant induction
IC50 [14]: 9.56 µM
IC50 [15]: 0.322 µM
CYP3A4 mRNA mean Emax [16]: 78.2 ± 113
classification as CYP3A4 inducer as per regulatory guidance [17]: strong inducer

Cc1ncc2n1-c1ccc(Cl)cc1C(c1ccccc1F)=NC2 [Midazolam]
reduction of midazolam AUC, i.v. ([18]; iv): 51%
reduction of midazolam AUC, oral ([18]; po): 92%

CC(C)c1nc(N(C)S(C)(=O)=O)nc(-c2ccc(F)cc2)c1/C=C/[C@@H](O)C[C@@H](O)CC(=O)O [Rosuvastatin]
relative contribution of OATP1B1/1B3 to uptake of rosuvastatin [19]: 65%
relative contribution of NTCP to uptake of rosuvastatin [20]: 35%

CC1(C)CCC(CN2CCN(c3ccc(C(=O)NS(=O)(=O)c4ccc(NCC5CCOCC5)c([N+](=O)[O-])c4)c(Oc4cnc5[nH]ccc5c4)c3)CC2)=C(c2ccc(Cl)cc2)C1 [Venetoclax]
estimated mean Vss/F from clinical data ([21]; patients): 3.67 L/kg
observed mean CL/F ([21]; venetoclax): 14.9 L/h
decrease of venetoclax AUC [22]: ~80%
decrease of venetoclax Cmax [22]: ~ 70%
Vd [23]: 0.36 to 1.78 L/kg

COc1ccc2[nH]c([S+]([O-])Cc3ncc(C)c(OC)c3C)nc2c1 (stereo not drawn) [omeprazole, reference compound]
increase in CYP1A2 mRNA levels ([13]; prototypical inducer (positive control)): 104 ± 97 fold

CN(Cc1cnc2nc(N)nc(N)c2n1)c1ccc(C(=O)N[C@@H](CCC(=O)O)C(=O)O)cc1 [Methotrexate]
reported methotrexate AUCR with probenecid [24]: 1.57 fold
